Experimental data reported in the supplement of paper PMC11061612.

Experiments:
Test in all cases: Bliss excess, mean over the matrix (fraction); higher = more synergy
[1] = system: 647-V (Bladder Carcinoma)
In short: (§1)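 Cell lines in DMEM/F12 or RPMI with 10% FBS were plated in 1536-well plates, held 24 hours at 37°C, 5% CO2, then given two-drug dose matrices for 72 hours (DMSO typically 0.2%). Viability was read by CellTiter-Glo 2.0 luminescence and scaled as inhibition from 0 (vehicle wells) to 1 (blank wells). Combination Emax is the second-highest inhibition in the matrix; Bliss excess is observed combination effect minus expected EA + EB − EA·EB, EA and EB being single-agent effects.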

A172 (Glioblastoma) = system: A172 (Glioblastoma)
In short: as §1

[2] = system: CAL-39 (Other Solid Carcinomas)
In short: as §1

[3] = system: D-283MED (Other Solid Carcinomas)
In short: as §1

[4] = system: DOK (Oral Cavity Carcinoma)
In short: as §1

H4 (Low Grade Glioma) = system: H4 (Low Grade Glioma)
In short: as §1

[5] = system: HCC1143 (Breast Carcinoma)
In short: as §1

HCC38 (Breast Carcinoma) = system: HCC38 (Breast Carcinoma)
In short: as §1

[6] = system: HCT-116 (Colorectal Carcinoma)
In short: as §1

[7] = system: HLE (Hepatocellular Carcinoma)
In short: as §1

[8] = system: HOP-92 (Non-Small Cell Lung Carcinoma)
In short: as §1

HuO9 (Osteosarcoma) = system: HuO9 (Osteosarcoma)
In short: as §1

MCF7 (Breast Carcinoma) = system: MCF7 (Breast Carcinoma)
In short: as §1

[9] = system: MES-SA (Other Solid Carcinomas)
In short: as §1

MSTO-211H (Mesothelioma) = system: MSTO-211H (Mesothelioma)
In short: as §1

[10] = system: SKN-3 (Head and Neck Carcinoma)
In short: as §1

[11] = system: SNU-61 (Colorectal Carcinoma)
In short: as §1

[12] = system: SW48 (Colorectal Carcinoma)
In short: as §1

[13] = system: U-118-MG (Low Grade Glioma)
In short: as §1

[14] = system: WSU-DLCL2 (B-Cell Non-Hodgkin's Lymphoma)
In short: as §1

SMILES	Bliss excess [1]	Bliss excess (A172 (Glioblastoma))	Bliss excess [2]	Bliss excess [3]	Bliss excess [4]	Bliss excess (H4 (Low Grade Glioma))	Bliss excess [5]	Bliss excess (HCC38 (Breast Carcinoma))	Bliss excess [6]	Bliss excess [7]	Bliss excess [8]	Bliss excess (HuO9 (Osteosarcoma))	Bliss excess (MCF7 (Breast Carcinoma))	Bliss excess [9]	Bliss excess (MSTO-211H (Mesothelioma))	Bliss excess [10]	Bliss excess [11]	Bliss excess [12]	Bliss excess [13]	Bliss excess [14]
COc1cccc(OCCCN)c1-c1cc(Nc2cnc(C#N)cn2)n[nH]1 [Prexasertib] + CCc1c2c(nc3ccc(O)cc13)-c1cc3c(c(=O)n1C2)COC(=O)[C@]3(O)CC [SN-38] (first compound max 1 µM, 7x7, partner max 0.3 µM)	0.0129	-0.0322	-0.0308	-0.0222	0.0242	-0.0544	0.0452	-0.0201	-0.0124	-0.0359	0.0418	-0.0301	-0.0081	-0.0714	-0.0857	0.0703	0.0163	-0.0333	-0.0193	-0.006
Cc1cc2ncnn2cc1Nc1ncc2c(n1)n(C1CCOCC1)c(=O)n2C [AZD7648] + C[C@@H]1COCCN1C2=NC(=NC(=C2)C3(CC3)[S@](=N)(=O)C)C4=C5C=CNC5=NC=C4 [AZD6738] (first compound max 10 µM, 7x7, partner max 10 µM)	0.0987	-0.0552	0.0081	-0.1	0.0441	-0.0116	-0.0328	0.0245	-0.0102	0.0049	0.0104	-0.0537	-0.0192	0.0541	0.0403	-0.0279	0.0199	-0.0195	-0.0049	-0.001
COc1cc2c(cc1OCCCCCOc1cc3c(cc1OC)C(=O)N1C=C(C)C[C@H]1C=N3)N=C[C@@H]1CC(C)=CN1C2=O [SG3199] + O=C(c1cc(Cc2n[nH]c(=O)c3ccccc23)ccc1F)N1CCN(C(=O)C2CC2)CC1 [Olaparib] (first compound max 0.001 µM, 7x7, partner max 10 µM)	-0.0289	0.0064	-0.0306	-0.0347	-0.0368	-0.0406	-0.0216	-0.0356	-0.0523	-0.0323	-0.0048	-0.0273	-0.0444	0.0626	-0.0175	-0.0276	-0.0453	-0.0321	-0.0488	-0.0058
Cc1cc2ncnn2cc1Nc1ncc2c(n1)n(C1CCOCC1)c(=O)n2C [AZD7648] + CN(C)CCCOc1ccc(-c2ccc3ncc4c(c3c2)n(C2CCOCC2)c(=O)n4C)cn1 [AZD0156] (first compound max 10 µM, 7x7, partner max 1 µM)	0.0401	-0.034	-0.0104	-0.0339	-0.0075	-0.0253	0.0031	0.0157	0.0277	-0.0274	-0.0136	0.0522	-0.0048	0.0228	0.0388	-0.0064	-0.0151	-0.0183	-0.0217	0.0127
NC1(C(=O)N[C@@H](CCO)c2ccc(Cl)cc2)CCN(c2ncnc3[nH]ccc23)CC1 [Capivasertib] + COc1nnc2ccc(N3CCC(c4ccc(OCCN5CCN(C)C(=O)[C@H]5C)cc4)CC3)nn12 [AZD5153] (first compound max 10 µM, 7x7, partner max 1 µM)	-0.0536	0.0178	-0.0579	-0.0185	0.03	-0.0057	-0.0035	-0.022	0.0331	-0.0096	-0.0027	-0.0142	-0.0413	0.0276	0.0056	0.0027	-0.01	-0.0226	0.057	-0.0546
CN(CCO)CC[C@H](CSc1ccccc1)Nc1ccc(S(=O)(=O)NC(=O)c2ccc(N3CCC([C@@H](O)c4ccccc4-c4ccc(Cl)cc4)CC3)cc2)cc1S(=O)(=O)C(F)(F)F [AZD4320] + CN(C)CCCOc1ccc(-c2ccc3ncc4c(c3c2)n(C2CCOCC2)c(=O)n4C)cn1 [AZD0156] (first compound max 1 µM, 7x7, partner max 1 µM)	0.0212	-0.0152	-0.0247	-0.0353	-0.0332	-0.0334	0.0124	-0.0504	-0.0518	-0.0209	-0.0014	0.0143	-0.051	-0.0315	0.0078	-0.0296	-0.0248	-0.0545	-0.0537	0.0117
CN(CCO)CC[C@H](CSc1ccccc1)Nc1ccc(S(=O)(=O)NC(=O)c2ccc(N3CCC([C@@H](O)c4ccccc4-c4ccc(Cl)cc4)CC3)cc2)cc1S(=O)(=O)C(F)(F)F [AZD4320] + C=CCn1c(=O)c2cnc(Nc3ccc(N4CCN(C)CC4)cc3)nc2n1-c1cccc(C(C)(C)O)n1 [AZD1775] (first compound max 1 µM, partner max 1 µM)	0.0479	-0.0101	-0.0529	-0.0122	-0.0273	0.0551	-0.0111	0.0723	-0.0294	0.0906	0.101	0.0484	-0.0008	-0.0017	0.0585	-0.0056	-0.0175	0.038	0.0108	-0.009
CN(CCO)CC[C@H](CSc1ccccc1)Nc1ccc(S(=O)(=O)NC(=O)c2ccc(N3CCC([C@@H](O)c4ccccc4-c4ccc(Cl)cc4)CC3)cc2)cc1S(=O)(=O)C(F)(F)F [AZD4320] + Cc1cc2ncnn2cc1Nc1ncc2c(n1)n(C1CCOCC1)c(=O)n2C [AZD7648] (first compound max 1 µM, 7x7, partner max 10 µM)	-0.0508	-0.0828	-0.03	0.0051	-0.0178	-0.0355	-0.0021	-0.0694	-0.0197	-0.0295	-0.0034	0.0482	-0.0357	-0.0399	-0.0237	-0.0463	-0.0254	0.0314	-0.0154	0.0591
CC1(C)CCC(CN2CCN(c3ccc(C(=O)NS(=O)(=O)c4ccc(NCC5CCOCC5)c([N+](=O)[O-])c4)c(Oc4cnc5[nH]ccc5c4)c3)CC2)=C(c2ccc(Cl)cc2)C1 [Venetoclax] + COc1cc(Nc2ncc3c(n2)-c2ccc(Cl)cc2C(c2c(F)cccc2OC)=NC3)ccc1C(=O)O [Alisertib] (first compound max 1 µM, 7x7, partner max 10 µM)	-0.0092	-0.108	-0.0989	0.0345	0.0114	-0.0124	0.0244	-0.0184	-0.0043	0.0066	0.082	0.135	0.0079	-0.0225	0.0116	-0.0565	-0.0091	-0.0083	-0.013	0.238
NC1(C(=O)N[C@@H](CCO)c2ccc(Cl)cc2)CCN(c2ncnc3[nH]ccc23)CC1 [Capivasertib] + CC(C)n1c(=O)n(C)c2cnc3cc(F)c(-c4ccc(OCCCN5CCCCC5)nc4)cc3c21 [AZD1390] (first compound max 10 µM, 7x7, partner max 0.3 µM)	-0.04	-0.0965	-0.0731	-0.0009	-0.0428	-0.0638	-0.0661	-0.0314	-0.0263	-0.0323	-0.0238	-0.0009	-0.11	-0.0275	-0.0905	-0.0849	-0.064	-0.0345	-0.0405	0.0106
CS(=O)(=O)CCNCc1ccc(-c2ccc3ncnc(Nc4ccc(OCc5cccc(F)c5)c(Cl)c4)c3c2)o1 [Lapatinib] + C[C@@H](Oc1cc(-c2cnn(C3CCNCC3)c2)cnc1N)c1c(Cl)ccc(F)c1Cl [Crizotinib] (first compound max 10 µM, 7x7, partner max 10 µM)	0.0097	-0.0564	0.026	-0.0496	-0.0302	0.002	-0.0312	-0.0049	-0.0748	-0.072	-0.0051	-0.069	-0.0386	-0.0302	-0.0667	-0.0299	0.0198	-0.0662	-0.0194	-0.0162
COc1cccc(OCCCN)c1-c1cc(Nc2cnc(C#N)cn2)n[nH]1 [Prexasertib] + O=C(c1cc(Cc2n[nH]c(=O)c3ccccc23)ccc1F)N1CCN(C(=O)C2CC2)CC1 [Olaparib] (first compound max 1 µM, 7x7, partner max 10 µM)	0.0459	-0.0474	-0.008	-0.0232	-0.0269	-0.0306	-0.18	-0.0641	0.0121	-0.0458	-0.0692	0.0553	-0.0236	-0.0561	-0.0597	-0.0113	-0.0407	-0.0795	-0.0445	-0.0311
Cn1cnc2c(F)c(Nc3ccc(Br)cc3Cl)c(C(=O)NOCCO)cc21 [Selumetinib] + C=CCn1c(=O)c2cnc(Nc3ccc(N4CCN(C)CC4)cc3)nc2n1-c1cccc(C(C)(C)O)n1 [AZD1775] (first compound max 10 µM, partner max 1 µM)	-0.0359	-0.126	0.0116	-0.0295	0.0043	-0.0797	-0.0112	-0.0768	-0.0286	-0.0358	-0.056	-0.0824	-0.079	-0.0289	-0.0323	0.0226	-0.0358	0.0116	-0.061	-0.0064
Cc1cc2ncnn2cc1Nc1ncc2c(n1)n(C1CCOCC1)c(=O)n2C [AZD7648] + O=C(c1cc(Cc2n[nH]c(=O)c3ccccc23)ccc1F)N1CCN(C(=O)C2CC2)CC1 [Olaparib] (first compound max 10 µM, 7x7, partner max 10 µM)	-0.0098	-0.007	-0.0323	-0.0398	-0.0334	0.0404	-0.0401	-0.0481	-0.0502	-0.036	-0.0144	0.0105	-0.0625	0.06	-0.0143	-0.0199	-0.0443	-0.031	-0.0441	-0.0096
